We go through six compounds from patent US20080114005A1, “Fibrate Compounds Having Ppar Agonist Activity” (Dr. Reddy's Laboratories Limited, priority 2004, published 2008).

The test system of one data set is Swiss albino mice. Put plainly: plasma triglyceride lowering activity in Swiss albino mice. The class given is in vivo. Particulars: 3.0 mg/kg orally for 6 days. The procedure: The properties of the derivatives of the invention were also evaluated in vivo. The following procedure was used to determine plasma triglyceride and total cholesterol lowering activity in Swiss albino mice.
Male Swiss albino mice (SAM) were obtained from National Institute Nutrition (NIN) and housed in Dr. Reddy's Laboratories Ltd (DRL) animal house. All these animals are maintained under 12 hour light and dark cycle at 25±1° C. Animals were given standard laboratory chow (NIN, Hyderabad, India) and water, ad libitum. SAM of 20-25 grams body weight range were used. See Oliver, P., Plancke, M. O., Marzin, D., Clavey, V., Sauzieres, J and Fruchart, J. C. Effects of fenofibrate, gemfibrozil and nicotinic acid on plasma lipoprotein levels in normal and hyperlipidemic mice, Atherosclerosis. 1988. 70: 107-114, incorporated herein by reference in its entirety. The test compounds can be administered orally to Swiss albino mice at the dose mentioned in table for 6 days. Control mice were treated with vehicle 0.25% Carboxymethylcellulose (CMC; dose 10 ml/kg). The blood samples from the retro-orbital sinus through heparinised capillary in EDTA containing tubes were collected in fed state 1 hour after drug administration on 0 and 6 days of treatment. After centrifugation plasma was separated for triglyceride measurement using commercial kits. See Wieland, O. Methods of Enzymatic analysis. Bergermeyer, H. O., Ed., 1963. 211-214; Trinder, P. Ann. Clin. Biochem. 1969. 6: 24-27, incorporated herein by reference in its entirety. Percent reduction was calculated as per the formula given in Petit, D., Bonnefis, M. T., Rey, C. and Infante, R. Effects of ciprofibrate on liver lipids and lipoprotein synthesis in normo- and hyperlipidemic rats. Atherosclerosis. 1988. 74 : 215-225.

Data set [1] deals with hypercholesterolemic rat model. Briefly: plasma triglyceride and cholesterol lowering activity in hypercholesterolemic rat model. In kind it is in vivo, Sprague Dawley rats. The conditions noted are these: hypercholesterolemic rats, 3.0 mg/kg orally for 3 days; for Reduction (%) LDL: LDL cholesterol calculated by formula; for ↑HDL: increase of plasma HDL (under head Reduction (%)); for Reduction (%) TC: plasma total cholesterol; for Reduction (%) TG: plasma triglyceride. As for the experimental part: The following procedure was used to determine plasma triglyceride and cholesterol lowering activity in hypercholesterolemic rat model.
Male Sprague Dawley rats (NIN stock) were bred in DRL animal house. Animals were maintained under 12 hour light and dark cycle at 25±1° C. Rats of 180-200 gram body weight range were used for the experiment. Animals are made hypercholesterolemic by feeding 2% cholesterol and 1% sodium cholate mixed with standard laboratory chow [National Institute of Nutrition (NIN), Hyderabad, India] for 6 days. Throughout the experimental period the animals were maintained on the same diet. The test compounds were administered orally at a dose mentioned in table for 3 days. Control group was treated with vehicle alone (0.25% CMC; 10 ml/kg). The blood samples were collected in fed state 1 hour after drug administration on 0 and 3 days of compound treatment. The blood was collected from the retro-orbital sinus through heparinised capillary in EDTA containing tubes. After centrifugation, plasma sample was separated for total cholesterol, HDL and triglyceride estimations. Measurement of plasma triglyceride, total cholesterol and HDL were done using commercial kits. LDL and VLDL cholesterol can be calculated from the data obtained for total cholesterol, HDL and triglyceride.
The percent reductions in blood sugar/triglycerides/total cholesterol were calculated according to the following formula:
OC=Zero day control group value
OT=Zero day treated group value
TC=Test day control group value
T=Test day treated group value.
The levels of LDL and VLDL cholesterol were calculated according to the formula:
VLDL cholesterol in mg/dl=[Total cholesterol-HDL cholesterol-LDL cholesterol] mg/dl.

Another data set has as its target T1, human PPARα (Homo sapiens, UniProt Q07869).
T1 construct: expressed in transfected cells; host or cells: HEK-293
T1 sequence (Q07869 239-466 limits assumed): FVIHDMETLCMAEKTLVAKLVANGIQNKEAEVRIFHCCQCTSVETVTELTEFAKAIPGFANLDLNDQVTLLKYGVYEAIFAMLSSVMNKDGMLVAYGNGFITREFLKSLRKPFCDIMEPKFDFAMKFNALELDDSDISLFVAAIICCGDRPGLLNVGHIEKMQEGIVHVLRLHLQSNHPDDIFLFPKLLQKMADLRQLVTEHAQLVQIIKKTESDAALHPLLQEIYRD
Briefly: in vitro PPARα transactivation, GAL4-LBD luciferase reporter in HEK-293 cells. The class given is cell-based. Particulars: luciferase fold activation relative to untreated cells. The source says: A number of derivatives of the invention have shown PPAR agonist activity. The following procedure was used for in vitro determination of PPARα, γ and δ transactivation.
(§1) The ligand binding domain of human PPARγ1, PPARα or PPARδ was fused to the C-terminal end of DNA binding domain of yeast transcription factor GAL4 in eukaryotic expression vector. HEK-293 cells were transfected with either of these plasmids, reporter plasmid pGL2 (Gal4×5)˜SV40˜Luc and pAdVantage using superfect (Qiagen, Germany) for 3 hours. pAdVantage vector was used to enhance the luciferase expression. 48 hours after transfection, the cells were harvested and incubated overnight with or without test compounds at different concentrations. The cells were lysed and luciferase activity was measured using the LucLite kit (Packard USA). Luciferase activity was measured as fold activation relative to untreated cells.
For orientation: A reporter such as luciferase makes a cellular process visible.

For another data set, the target named is T2, human PPARδ (Homo sapiens, UniProt Q03181).
T2 construct: expressed in transfected cells; host or cells: HEK-293
T2 sequence (Q03181 211-439 limits assumed): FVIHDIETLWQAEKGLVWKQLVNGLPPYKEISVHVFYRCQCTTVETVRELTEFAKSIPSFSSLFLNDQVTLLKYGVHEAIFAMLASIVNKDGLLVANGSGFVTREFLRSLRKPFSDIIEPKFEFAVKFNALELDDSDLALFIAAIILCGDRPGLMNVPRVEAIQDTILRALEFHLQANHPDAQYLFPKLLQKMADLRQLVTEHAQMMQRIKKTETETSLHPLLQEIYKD
Briefly: in vitro PPARδ transactivation, GAL4-LBD luciferase reporter in HEK-293 cells. In kind it is cell-based. The conditions noted are these: luciferase fold activation relative to untreated cells. The procedure:
The following procedure was used for in vitro determination of PPARα, γ and δ transactivation.
as §1

Each structure is given as a SMILES string. Structures can show the parent of a compound that is named as a salt.

By melting point is commonly meant the temperature, or range, at which the solid turns liquid. In turn, `CCCc1nn(C)c2c(=O)n(CCOc3cccc(O[C@@](C)(CC)C(=O)O)c3)c(C)nc12` [Example 104, S-(−)-2-{3-[2-(1,5-Dimethyl-7-oxo-3-propyl-1,7-dihydro-pyrazolo[4,3-d]pyrimidin-6-yl)-ethoxy]-phenoxy}-2-methyl-butyric acid] showed a melting point of 119 to 120 °C. Further, the “% reduction in TG” value in the data set on Swiss albino mice worked out at 70%. Besides, in data set [1], the “Reduction (%) LDL” value is recorded as 77%, the “↑HDL” value came out at 158%, the “Reduction (%) TC” value is given as 71% and the “Reduction (%) TG” value was determined as 72%.

With `CCCc1nn(C)c2c(=O)n(CCCc3ccc(OC(C)(CC)C(=O)O)cc3)c(C)nc12` (centres unmarked) [Example 96, Magnesium salt of 2-{4-[3-(1,5-dimethyl-7-oxo-3-propyl-1,7-dihydro-pyrazolo[4,3-d]pyrimidin-6-yl)-propyl]-phenoxy}-2-methyl-butyric acid], in the data set with Swiss albino mice (3 mg/kg), the “% reduction in TG” value amounted to 60%. Also, in data set [1] (3 mg/kg), the “Reduction (%) LDL” value was 67%, the “↑HDL” value worked out at 162%, the “Reduction (%) TC” value is recorded as 63% and the “Reduction (%) TG” value worked out at 76%.

The compound `CCCc1nn(C)c2c(=O)n(CCOc3cccc(OC(C)(C)C(=O)OCC)c3)c(C)nc12` [Example 88, 2-{3-[2-(1,5-Dimethyl-7-oxo-3-propyl-1,7-dihydro-pyrazolo[4,3-d]pyrimidin-6-yl)-ethoxy]-phenoxy}-2-methyl-propionic acid ethyl ester] returned a melting point of 86 to 88 °C. At human PPARα (test compound at 1 μM), this compound displayed a PPARα activation of 1.6. This compound came in with a PPARα activation on human PPARα (test compound at 10 μM) of 3.6. At human PPARδ (test compound at 1 μM), this compound displayed a PPARδ activation of 0.3. The PPARδ activation on human PPARδ (test compound at 10 μM) amounted to 0.6.

The compound `CCCc1nn(C)c2c(=O)n(CCCc3cccc(OC(C)(C)C(=O)O)c3)c(C)nc12.N=C(N)NCCC[C@H](N)C(=O)O` [Example 82, Argenine salt of 2-{3-[3-(1,5-dimethyl-7-oxo-3-propyl-1,7-dihydro-pyrazolo[4,3-d]pyrimidin-6-yl)-propyl]-phenoxy}-2-methyl-propionic acid] displayed a PPARα activation at human PPARα (test compound at 1 μM) of 7.1. The PPARα activation at human PPARα (test compound at 10 μM) amounted to 8.4. Besides, on human PPARδ (test compound at 1 μM), the PPARδ activation is given as 0. The same compound showed a PPARδ activation at human PPARδ (test compound at 10 μM) of 0. In the data set with Swiss albino mice, the “% reduction in TG” value amounted to 81%. In data set [1], the “Reduction (%) LDL” value is listed as 72%, the “↑HDL” value was determined as 48%, the “Reduction (%) TC” value is on record as 68% and the “Reduction (%) TG” value came out at 69%.

Regarding `CCCc1nn(C)c2c(=O)n(CCOc3cccc(O[C@](C)(CC)C(=O)O)c3)c(C)nc12` [Example 100, R-(+)-2-{3-[2-(1,5-Dimethyl-7-oxo-3-propyl-1,7-dihydro-pyrazolo[4,3-d]pyrimidin-6-yl)-ethoxy]-phenoxy}-2-methyl-butyric acid], the melting point lay within 118 to 120 °C. Moreover, the “% reduction in TG” value in the data set with Swiss albino mice was 76%. Moreover, in data set [1], the “Reduction (%) LDL” value is given as 76%, the “↑HDL” value turned out to be 145%, the “Reduction (%) TC” value stood at 70% and the “Reduction (%) TG” value amounted to 60%.

In the case of `CCCc1nn(C)c2c(=O)n(CCCc3ccc(OC(C)(C)C(=O)O)cc3)c(C)nc12.N=C(N)NCCC[C@H](N)C(=O)O` [Example 79, Argenine salt of 2-{4-[3-(1,5-dimethyl-7-oxo-3-propyl-1,7-dihydro-pyrazolo[4,3-d]pyrimidin-6-yl)-propyl]-phenoxy}-2-methyl-propionic acid], in the data set on Swiss albino mice, the “% reduction in TG” value worked out at 55%.
